The target in one test is T1, IDH R132C (Homo sapiens, UniProt O75874, R132C).
T1 construct: expressed in transfected cells; host or cells: U87 cells
Description: Detection of 2-HG in supernatant of U87-IDH R132C cells. To be noted: 72 h, LC-MS-MS, vs control; for inhibition at 0.001 µM: 1 nM compound, read-out: Inhibition rate of compounds on 2-HG in the supernatant of U87-IDH R132C cells, 1 nM; for inhibition at 0.01 µM: 10 nM compound, read-out: Inhibition rate of compounds on 2-HG in the supernatant of U87-IDH R132C cells, 10 nM; for inhibition at 0.1 µM: 100 nM compound, read-out: Inhibition rate of compounds on 2-HG in the supernatant of U87-IDH R132C cells, 100 nM. Format: cell-based.

Test [1] deals with 2-HG in HT1080 tumor tissues. Description: Detection of 2-HG in HT1080 tumor tissues of nude mice. Format: in vivo. As to conditions: Mus musculus, HT-1080, sc, subcutaneous HT1080, 20 mg/kg. As to the method: Nude mice were inoculated subcutaneously with 1×10^6 HT1080 cells. When the tumor volume reached 100-150 mm^3, the mice were randomly grouped into solvent control group and compounds 1, 70, 79, 85, 96, 139, 157 and LY-3410738 20 mg/kg groups. The tumors were collected three days and seven days after continuous administration, weighed, digested with a digestion solution and then homogenized. The level of 2-HG in the tumor tissues were determined by LC-MS-MS. The percentage inhibition of compounds on 2-HG in tumor tissues was calculated as compared with the control.

Setting [2] is: 72 h, three days of continuous administration, read-out: Inhibition rate of compounds on 2-HG in HT1080 tumor tissues, 3 days.
Where [3] appears, read: 168 h, seven days of continuous administration, read-out: Inhibition rate of compounds on 2-HG in HT1080 tumor tissues, 7 days.

The source of these data is US12559505B2, “IDH mutant inhibitor and use thereof” (WIGEN BIOMEDICINE TECHNOLOGY (SHANGHAI) CO., LTD., priority 2020, dated 2026).

The structures appear in SMILES notation. Where two headings read alike, the source gives them in different places. Where only a bound is given, the exact number is not on record here.

T1 sequence (O75874 whole entry R132C): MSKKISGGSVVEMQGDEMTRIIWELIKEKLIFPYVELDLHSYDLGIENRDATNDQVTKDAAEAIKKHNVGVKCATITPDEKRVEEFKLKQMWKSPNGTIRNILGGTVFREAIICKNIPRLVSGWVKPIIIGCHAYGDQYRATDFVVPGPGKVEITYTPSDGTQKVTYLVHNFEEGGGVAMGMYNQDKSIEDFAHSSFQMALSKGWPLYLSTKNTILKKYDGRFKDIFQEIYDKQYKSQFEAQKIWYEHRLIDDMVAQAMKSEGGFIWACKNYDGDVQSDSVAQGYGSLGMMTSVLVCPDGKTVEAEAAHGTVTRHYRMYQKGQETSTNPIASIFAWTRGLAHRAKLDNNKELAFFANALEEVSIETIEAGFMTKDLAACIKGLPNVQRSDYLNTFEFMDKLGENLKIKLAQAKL

With `C=CC(=O)N1CC2(C1)CN(C(CC1CC1)c1ccc([C@H](C)Nc3ncc4c(n3)N(CC)C(=O)OC4)cc1)C2` (stereo partly drawn) [Compound 1], on IDH R132C, the inhibition (commonly the percentage by which the read-out fell short of the control) at 0.001 µM fell in the range of 30 to 60%, the inhibition at 0.01 µM is over 90% and the inhibition at 0.1 µM is over 90%. Besides, the inhibition in vivo at 20 mg/kg in test [1] (setting [2]) stood at 54 ± 18%. Further, in test [1] (setting [3]), the inhibition in vivo at 20 mg/kg was determined as 95 ± 0.5%.
As to `C=CC(=O)N1CCN(C(CC23CC(C2)C3)c2ccc([C@H](C)Nc3ncc4c(n3)N(CC)C(=O)NC4)cc2)CC1` (stereo partly drawn) [Compound 70], at IDH R132C, the inhibition at 0.001 µM is 60 to 90%, the inhibition at 0.01 µM is over 90% and the inhibition at 0.1 µM was over 90%. The inhibition in vivo at 20 mg/kg in test [1] (setting [2]) turned out to be 62 ± 8%. Besides, the inhibition in vivo at 20 mg/kg in test [1] (setting [3]) worked out at 92 ± 5%.
For `C=CC(=O)N1CCN(C(CC2CC2)c2ccc([C@H](C)Nc3ncc4c(n3)N(C(C)C)C(=O)NC4)cc2)CC1` (stereo partly drawn) [Compound 79], on IDH R132C, the inhibition at 0.001 µM was in the range of 30 to 60%, the inhibition at 0.01 µM fell in the range of 60 to 90% and the inhibition at 0.1 µM was over 90%. The inhibition in vivo at 20 mg/kg in test [1] (setting [2]) was found to be 50 ± 3%. For the same molecule, the inhibition in vivo at 20 mg/kg in test [1] (setting [3]) was 97 ± 1%.
In the same order, the values of `C=CC(=O)N1CCN(C(CC2CC2)c2ccc([C@H](C)Nc3ncc4cnc(=O)n(C(C)C)c4n3)cc2)CC1` (stereo partly drawn) [Compound 85, 7-(((1S)-1-(4-(1-(4-acryloylpiperazin-1-yl)-2-cyclopropylethyl)phenyl)ethyl)amino)-1-isopropylpyrimidine[4,5-d]pyrimidine-2(1H)-one] are 60 to 90%, over 90%, over 90%, 57 ± 6% and 94 ± 3%.
In the same order, the values of `C=CC(=O)N1CCN(C(CC23CC(C2)C3)c2ccc([C@H](C)Nc3ncc4c(n3)N(CC)C(=O)OC4)cc2)CC1` (stereo partly drawn) [Compound 157] are 60 to 90%, over 90%, over 90%, 60 ± 8% and 90 ± 7%.
For the molecule `C=CC(=O)N1CCN([C@@H](CC2CC2)c2ccc([C@H](C)Nc3ncc4c(n3)N(CC)C(=O)OC4)cc2)CC1` [LY-3410738, reference compound], on IDH R132C, the inhibition at 0.001 µM lay in the range of 30 to 60%, the inhibition at 0.01 µM is over 90% and the inhibition at 0.1 µM is over 90%. The inhibition in vivo at 20 mg/kg in test [1] (setting [2]) came out at 58 ± 11%. The inhibition in vivo at 20 mg/kg in test [1] (setting [3]) was found to be 88 ± 12%.
